Structures are written as SMILES.

Usually melting point stands for the temperature, or range, at which the solid turns liquid. `COc1cc2cnnc(N3CCC(=O)CC3)c2cc1OC` gave a melting point of 180 to 181 °C. Then `CCn1nc(-c2ccccc2)c(C(C)=O)c(Nc2cccc3ncccc23)c1=O`, with 220 to 221 °C; and `Cc1cc(OCC2(O)CCS(=O)(=O)CC2)cc(C)c1-c1cccc(CNc2ccc(CCC(=O)O)c(F)c2)c1`, with 178 °C. Then `COc1ccc2c(c1)Sc1nccnc1N2`, with 210 to 211 °C. Then `CCCCOCCOc1ccc(-c2ccc3c(c2)C=C(C(=O)O)CCN3c2csc(C)n2)cc1`, with 155 to 158 °C; and `Cc1c(CCOCCO[N+](=O)[O-])cc(-c2ccc(S(C)(=O)=O)cc2)n1-c1ccccc1`, with 78 to 80 °C; and `CSc1ccc(/C(=C/CO)c2ccc(I)cc2)cc1`, with 91 to 95 °C. For `CON(C)C(=O)Nc1nnc(SCc2cccnc2)s1`, the melting point is 142 to 144 °C.

Turning to `CCOC(=O)CCNC(=O)NC1CCN(c2ccc(C(=N)NOC(=O)OCC(Cl)(Cl)Cl)cc2)C1=O` (stereo not given), the melting point was 196 to 198 °C.

As for `COc1ccc(C2=NN(CC(=O)c3ccccc3)C(=O)[C@H]3CCCC[C@@H]23)cc1OC` (relative stereo), the melting point was in the range of 133 to 135 °C. Then `CCc1cn(C[C@@H](C)O)c2ccc(F)c(Cl)c12`, with 87 to 88 °C. Consider `O=C1CC(c2cccc(-n3cncn3)c2)=Nc2ccc(C#Cc3ccc(F)cc3)cc2N1`, for which the melting point is 217 to 218 °C. Then `CN(C)CCCn1c(-c2ccc(C#N)cc2)cc2c1CCCCC2`, with 96 to 97 °C; and `ClCc1cccc2cc(Br)ccc12`, with 73 to 76 °C; and `OC(COc1ccn(-c2ccc(Cl)c(Cl)c2)n1)CN1CCOCC1` (stereo not given), with 158 to 161 °C. Then `Cc1cc(C(C)(C)C)c(O)c([N+](=O)[O-])c1[N+](=O)[O-]`, with 104 to 105 °C; and `O=C(O)CCN1CCN(C2=Nc3ccccc3Sc3ccc(Cl)cc32)CC1`, with 120 to 121 °C; and `Cc1oc(-c2ccccc2)nc1CCOc1ccc(C=O)cn1`, with 99 to 100 °C. Then `Cc1ccc(C(=O)c2ccc(CC(=O)O)n2C)s1`, with 152 to 154 °C; and `CC(=O)Nc1ccc2c(c1)CN(C)CC2`, with 157 to 159 °C. Turning to `O=C1c2ccccc2C(=O)N1c1ccccc1CSc1nccn1Cc1ccccn1`, the melting point lay in the range of 80 to 83 °C. Compound `Cc1cccc2c(=O)n(S(=O)(=O)c3ccc(Cl)cc3)c(=O)[nH]c12` showed a melting point of 221 to 225 °C. `Cc1[nH]cnc1CON1C(=O)c2ccccc2C1=O` registered a melting point of 155 to 156 °C. Then `O=C(C=Cc1ccc(C(F)(F)F)cc1)N1CCc2c([nH]c3ccccc23)C1c1ccccc1` (stereo not given), with 211 °C. Then `CC(C(N)=O)c1ccc2c(c1)C(=O)Cc1cc(F)ccc1S2` (stereo not given), with 224 to 225 °C.

As to `C#CCN1CCN(C2Cc3ccc(OC)cc3Sc3ccc(Cl)cc32)CC1` (stereo not given), the melting point lay within 177 to 180 °C. Then `O=C(Nc1cccc(S(=O)(=O)C(F)(F)F)c1)c1cnn2c(C(F)(F)F)cc(-c3ccc(C(F)(F)F)cc3)nc12`, with 207 °C; and `CCCCCCCNC(=O)Nc1ccc(N(C)C)cc1C(=O)NCC1CCCN(C(c2ccccc2)c2ccccc2)C1` (stereo not given), with 142 to 144 °C. Then `CCC(O)c1ccc(-c2ccc(Cl)cc2)cc1` (stereo not given), with 114 to 116 °C.

In turn, `Cc1oc(-c2ccco2)nc1COc1ccc(COc2nn(-c3ccccc3)cc2/C=C/C(=O)O)cc1` gave a melting point of 144 to 145 °C. Then `CS(=O)(=O)Nc1c(C(=O)c2ccccc2)[nH]c2cc(Cl)ccc12`, with 215 to 218 °C; and `CCn1cnc2c(Nc3cccc(C(F)(F)F)c3)nc(Cl)nc21`, with 129 to 130 °C. Then `CSc1nc(Cc2ccccc2[N+](=O)[O-])n[nH]1`, with 120 to 132 °C. Then `O=C(NCCc1ccc(I)cc1)C(F)(F)F`, with 136 to 138 °C; and `CC(C)c1cc(NS(=O)(=O)c2cc(C3(O)CCC(=O)N3C)ccc2Cl)cc(C(C)C)c1O` (stereo not given), with 198 to 200 °C; and `Cn1cc(-c2ncc(-c3ccc4cc(OCC(=O)O)ccc4c3)o2)c2ccccc21`, with 269 to 272 °C. Compound `OC(CN1CCNC1=S)c1cccnc1` (stereo not given) yielded a melting point of 200 to 202 °C. On to `Cc1ccc(C(=O)OC2CCN(Cc3cccc([N+](=O)[O-])c3)CC2)cc1`, for which the melting point was 90 to 93 °C. Then `O=C1NC(=O)C(c2cn(CCCO)c3ccc(F)cc23)=C1c1cccc(NCC(O)CO)c1` (stereo not given), with 118 to 125 °C. Then `O=C(C=Cc1ccc(O)cc1)N1CCc2c([nH]c3ccccc23)C1c1ccc2c(c1)OCO2` (stereo not given), with 175 °C; and `CCc1cc(C)cc(CC)c1NC(=S)NC(C)(C)CC`, with 98 to 101 °C. Then `N#Cc1ccc(Nc2nc(Cl)nc(Cc3c(Cl)cccc3Cl)n2)cc1`, with 243 to 244 °C; and `CCOc1cc(C(CC(N)=O)N2Cc3ccccc3C2=O)ccc1OC` (stereo not given), with 169 °C; and `Cc1cc(SC(C)c2cccc3cn(-c4ccc(C(F)(F)F)cc4)nc23)ccc1OCC(=O)O` (stereo not given), with 62 to 64 °C. `CCOC(=O)NC(=S)NC(C)C` had a melting point of 52.5 to 54 °C. Then `O=C1CCn2c(-c3cccs3)nc3c(Cl)ccc1c32`, with 252 to 254 °C. Then `O=c1c2cnn(CC3CO3)c2ncn1CC1CO1` (stereo not given), with 90 to 95 °C. Then `O=C(Nc1ccc(Oc2ccnc(NC3CCCC3)n2)c2ccccc12)c1cc(F)cc(N2CCOCC2)c1`, with 119 to 120 °C; and `O=C(O)c1ccc(-c2nnn[nH]2)cc1Sc1ccccc1`, with 239 to 240 °C. The compound `CC(=O)NC(=O)NCC(=O)N1CC1C#N` (stereo not given) displayed a melting point of 118 to 122 °C. Then `O=C(O)[C@@H](CC(=O)N1CCN(CC(F)(F)F)CC1)Cc1ccccc1`, with 96 to 98 °C.

Compound `NS(=O)(=O)c1ccc(NC(=O)Nc2ccc3c(c2)Cc2ccccc2-3)cc1` returned a melting point of 280 to 285 °C. Then `CCCCOc1ccc(S(=O)(=O)N2CCC(NCc3ccccc3)C2)cc1` (stereo not given), with 99 to 100 °C; and `COC(=O)CCCc1nc(Cl)c2c(n1)[nH]c1ccccc12`, with 258 °C; and `Cc1c(N2CCC(C(N)c3cccnc3)C2)c(F)c(N)c2c(=O)c(C(=O)O)cn(C3CC3F)c12` (stereo not given), with 213 to 215 °C. Then `CSc1c(CC(=O)O)n(Cc2ccc(Cl)cc2)c2ccc(CF)cc12`, with 136 to 140 °C; and `O=C1NCCC12CCCN2Cc1ccccc1` (stereo not given), with 152 to 153 °C; and `O=P1(c2ccccc2)NCc2ccccc21` (stereo not given), with 177 to 180 °C. Then `OCCCN1CCC(C(O)(c2ccc(F)cc2)c2ccc(F)cc2)CC1`, with 155 to 157 °C; and `COC(=O)Cc1ccc2occ(-c3ccc(Br)cc3)c2c1`, with 84 to 86 °C. As to `O=Cc1cccc(Sc2ccc(O)cc2)c1O`, the melting point lay in the range of 97 to 98 °C. Then `CS(=O)c1ncc2ccc(=O)n(C3CCCC3)c2n1` (stereo not given), with 170 to 173 °C; and `CCOC(=O)c1ccc2ccccc2c1O`, with 48.5 to 49 °C; and `CCC1(Cc2ncn(C(c3ccccc3)(c3ccccc3)c3ccccc3)c2C)CCc2c(C)c3ccccc3n2C1=O` (stereo not given), with 83 to 98 °C.

`CC(C(=O)O)c1ccc(CC2CCCCC2=NO)cc1` (stereo not given): the melting point is 143 to 150 °C.

As to `O=C(O)c1cn(-c2cc([N+](=O)[O-])c(F)c(F)c2F)c2nc(Cl)c(F)cc2c1=O`, the melting point lay in the range of 216 to 221 °C. The compound `CC(C)CCCC(=O)OC1c2ccccc2C(=O)N1c1ccc2ccc(Cl)nc2n1` (stereo not given) gave a melting point of 132 °C. Then `Nc1ccc(NC(=O)NC(=O)c2c(F)cccc2F)cc1`, with 240 °C. Then `COC(=O)C(C)Oc1ccc(NC(=O)CO)cc1` (stereo not given), with 111 to 113 °C; and `CC(C)(C)OC(=O)N1CCC(c2ccc(N3C[C@H](CN)OC3=O)cc2F)CC1`, with 136 to 137 °C. `CSc1c(CC(=O)O)cc(C)c2c3ccccc3n(Cc3ccccc3)c12` showed a melting point of 219 to 220 °C. Then `O=C(O)CN(CC(=O)O)CC(CO)C(=O)O` (stereo not given), with 195 °C; and `CS(=O)(=O)c1ccc(-c2ccccc2NC(=N)N2CCCCC2)cc1`, with 128 to 129 °C; and `O=C(NCc1ccc(Cl)cc1)c1cnc2sc(CCCO)cc2c1O`, with 185 to 186 °C.

Compound `CCCn1nc2c(N)nc3ccccc3c2c1CCCCS(=O)(=O)N(C)C` displayed a melting point of 144 to 146 °C. Then `COc1cn(C(C)c2ccccc2)c(=O)o1` (stereo not given), with 49 to 52 °C.

In the case of `CNc1cnc2ccc(Cl)cc2c1-c1ccccc1`, the melting point is 139 to 140 °C.

With `CC(C)(C)OC(=O)NCCCBr`, the melting point is 40 °C.

The compound `NC(=O)c1nc(-c2ccccn2)nc2c1[nH]c(=O)n2-c1ccccc1` registered a melting point of 347 to 349 °C. Then `COc1cc2c(cc1OCc1ccccc1)C(C#N)(Sc1ccc(Cl)cc1)C2` (stereo not given), with 114 to 115 °C; and `CC(C)(C)OC(=O)Nc1ccc(I)cc1`, with 148 to 149 °C; and `C#CCCC(O)=C(C#N)C(=O)Nc1ccc(Cl)c(C)c1`, with 147 °C.

In turn, `NC(=O)c1ccc(-c2ccccc2OCC2CC2)[nH]c1=O` registered a melting point of 160 to 162 °C. Then `CCn1c(=O)c(NC(=O)Nc2ccc(F)cc2F)c(-c2ccccc2Cl)c2cc(C)cc(C)c21`, with 186 to 188 °C; and `CCOC(=O)N1CCC(n2nnnc2CCC(C)Oc2ccc3nc4[nH]c(=O)[nH]c4cc3c2)CC1` (stereo not given), with 233 to 236 °C; and `NS(=O)(=O)c1c(S)cccc1C(F)(F)F`, with 155 °C. Then `CCSc1ccc(-c2nccs2)c2c1C(=O)CC(C)C2` (stereo not given), with 117 to 118 °C; and `NC(=O)CNC(=O)c1cccc(-c2cccc3cc(Cc4cccc(CO)c4)sc23)c1`, with 155 to 156 °C; and `COc1cc(-c2nc3cc(F)ccc3s2)ccc1OC(=O)N1CCOCC1`, with 126 °C.

As for `CC1(C)C=C(NC=NC#N)c2cc(C#N)ccc2O1`, the melting point fell in the range of 159 to 161 °C.

For the origin of these results see a melting point compilation (Tetko et al.; mined from patent text by program, amines drawn as free bases though some values may be those of a salt).
